According to patent US20250127863A1, “ANTIMICROBIAL PEPTIDE FOR ONYCHOMYCOSIS” (CBMR SCIENTIFIC NANOSCIENCE B.V., priority 2019, published 2025):
No end group written: not given here.

Columns and labels:
Experiment in all cases: MIC90 growth inhibition
Type in all cases: cell-based
Absidia corymbifera = settings: RPMI 1640 one-fourth strength
Experimental: (§1) The minimum inhibitory concentration (MIC) value is defined as the lowest sample concentration that inhibited growth. In the Examples, the MIC90 value is presented, which MIC90 values are determined according to established methods known to the person with the skills in the relevant art. Experiments; 1×10E5 CFU of various strains/ml were incubated for 24-48 h at 37° C. in 4× diluted medium of RPMI 1640 with the indicated concentrations of antimicrobial peptide hLF(1-11) [SEQ ID NO: 3]. As controls various strains cells were incubated for 24-48 h at 37° C. with no agent (antimicrobial peptide), and subsequently, growth of the microbial organism (e.g. yeast, bacterium) was monitored by using spectrophotometry with a spectrophotometer at 620 nm. […] ND=Not done. Representative single assay data are listed rather than a range, for clarity reasons and for ease of comparison of peptide efficacy. The MIC was calculated as the lowest antibiotic (antimicrobial peptide) concentration at which growth of the assessed yeast or bacterium (microbe) was inhibited (inhibitory concentration IC90).

Altematria spp. = settings: RPMI 1640 one-fourth strength
Experimental: as §1

Aspergillus fumigatus = settings: RPMI 1640 one-fourth strength
Experimental: as §1

Aspergillus niger = settings: RPMI 1640 one-fourth strength
Experimental: as §1

Aspergillus sydowii = settings: RPMI 1640 one-fourth strength
Experimental: as §1

Aspergillus terreus = settings: RPMI 1640 one-fourth strength
Experimental: as §1

Aspergillus ungius = settings: RPMI 1640 one-fourth strength
Experimental: as §1

C. neoformans = settings: RPMI 1640 one-fourth strength
Experimental: as §1

Cladosporium trichoides = settings: RPMI 1640 one-fourth strength
Experimental: as §1

Cryptococcus albidus = settings: RPMI 1640 one-fourth strength
Experimental: as §1

Cryptococcus gattii = settings: RPMI 1640 one-fourth strength
Experimental: as §1

Dekkera bruxellensis = settings: RPMI 1640 one-fourth strength
Experimental: as §1

Epidermophyton floccosum = settings: RPMI 1640 one-fourth strength
Experimental: as §1

Escherichia coli = settings: RPMI 1640 one-fourth strength
Experimental: as §1

Exophiala dermatitidis = settings: RPMI 1640 one-fourth strength
Experimental: as §1

Fusarium moniliforme = settings: RPMI 1640 one-fourth strength
Experimental: as §1

Fusarium oxysporum = settings: RPMI 1640 one-fourth strength
Experimental: as §1

Geotrichium spp = settings: RPMI 1640 one-fourth strength
Experimental: as §1

Helicobacter pylori = settings: RPMI 1640 one-fourth strength
Experimental: as §1

[1] = tested on: Malassezia furfur CBS 1878; settings: RPMI 1640 one-fourth strength
Experimental: as §1

[2] = tested on: Malassezia furfur CBS 7019; settings: RPMI 1640 one-fourth strength
Experimental: as §1

[3] = tested on: Malassezia furfur CBS-9372; settings: RPMI 1640 one-fourth strength
Experimental: as §1

Malassezia furfur spp. = settings: RPMI 1640 one-fourth strength
Experimental: as §1

[4] = tested on: Malassezia pachydermatis CBS-1879; settings: RPMI 1640 one-fourth strength
Experimental: as §1

[5] = tested on: Malassezia restricta CBS 7877; settings: RPMI 1640 one-fourth strength
Experimental: as §1

Microsporum canis = settings: RPMI 1640 one-fourth strength
Experimental: as §1

Microsporum gypseum = settings: RPMI 1640 one-fourth strength
Experimental: as §1

Mycobacterium avium = settings: RPMI 1640 one-fourth strength
Experimental: as §1

Nannizia gypsea = settings: RPMI 1640 one-fourth strength
Experimental: as §1

[6] = tested on: Paracoccidioides brasiliensis; settings: RPMI 1640 one-fourth strength
Experimental: as §1

Rhizopus spp = settings: RPMI 1640 one-fourth strength
Experimental: as §1

[7] = tested on: Saccharomyces cerevisiae spp; settings: RPMI 1640 one-fourth strength
Experimental: as §1

[8] = tested on: Saccharomyces cerivisiae ATCC 2601; settings: RPMI 1640 one-fourth strength
Experimental: as §1

Sporothrix schenckii = settings: RPMI 1640 one-fourth strength
Experimental: as §1

[9] = tested on: Staphylococcus aureus 10649; settings: RPMI 1640 one-fourth strength
Experimental: as §1

Streptococcus caseii = settings: RPMI 1640 one-fourth strength
Experimental: as §1

Streptococcus lactis = settings: RPMI 1640 one-fourth strength
Experimental: as §1

Streptococcus mitis = settings: RPMI 1640 one-fourth strength
Experimental: as §1

Streptococcus mutans = settings: RPMI 1640 one-fourth strength
Experimental: as §1

[10] = tested on: Streptocococcus mitis 032; settings: RPMI 1640 one-fourth strength
Experimental: as §1

[11] = tested on: Streptocococcus mitis 033; settings: RPMI 1640 one-fourth strength
Experimental: as §1

Trichophyton spp = Trichophyton spp (Table 1); RPMI 1640 one-fourth strength
Experimental: as §1

Trichophyton tonsurans = settings: RPMI 1640 one-fourth strength
Experimental: as §1

Trichosporon cutaneum = settings: RPMI 1640 one-fourth strength
Experimental: as §1

[12] = tested on: Zygosaccharomyces bisprous; settings: RPMI 1640 one-fourth strength
Experimental: as §1

GRRRRSVQWCA [hLF1-11, Gly Arg Arg Arg Arg Ser Val Gln Trp Cys Ala]
Inhibitory concentration MIC (MIC90) (Absidia corymbifera): MIC = 40 μg/ml | Inhibitory concentration MIC (MIC90) (Altematria spp.): MIC = 16 μM | Inhibitory concentration MIC (MIC90) (Aspergillus fumigatus): MIC = 2.5-25 μg/ml | Inhibitory concentration MIC (MIC90) (Aspergillus niger): MIC = 50 μg/mL | Inhibitory concentration MIC (MIC90) (Aspergillus sydowii): MIC = 2.5-12.5 μg/ml | Inhibitory concentration MIC (MIC90) (Aspergillus terreus): MIC = 2.5-12.5 μg/ml | Inhibitory concentration MIC (MIC90) (Aspergillus ungius): MIC = 3.1-25 μg/ml | Inhibitory concentration MMC (C. neoformans): MMC = 50 μg/ml | Inhibitory concentration MIC (MIC90) (Cladosporium trichoides): MIC = 5 μg/ml | Inhibitory concentration MIC (MIC90) (Cryptococcus albidus): MIC = 25 μg/ml | Inhibitory concentration MIC (MIC90) (Cryptococcus gattii): MIC = 64 μg/mL | Inhibitory concentration MIC (MIC90) (Dekkera bruxellensis): MIC = 3.75-20 μM | Inhibitory concentration MIC (MIC90) (Epidermophyton floccosum): MIC = 0.31-2.5 μg/ml | Inhibitory concentration MIC (MIC90) (Escherichia coli): MIC = 6.3 μg/ml | Inhibitory concentration MIC (MIC90) (Exophiala dermatitidis): MIC = 2 μg/ml | Inhibitory concentration MIC (MIC90) (Fusarium moniliforme): MIC = 2.5-5 μg/ml | Inhibitory concentration MIC (MIC90) (Fusarium oxysporum): MIC = 8-16 μM | Inhibitory concentration MIC (MIC90) (Geotrichium spp): MIC = 50 μg/mL | Inhibitory concentration MIC (MIC90) (Helicobacter pylori): MIC = 12.5-50 μg/ml | Inhibitory concentration MIC (MIC90) [1]: MIC = 12.5-50 μg/mL | Inhibitory concentration MIC (MIC90) [2]: MIC = 12.5-50 μg/mL | Inhibitory concentration MIC (MIC90) [3]: MIC = 50 μg/ml | Inhibitory concentration MIC (MIC90) (Malassezia furfur spp.): MIC = 12.5-50 μg/mL | Inhibitory concentration MIC (MIC90) [4]: MIC = 50 μg/ml | Inhibitory concentration MIC (MIC90) [5]: MIC = 50 μg/mL | Inhibitory concentration MIC (MIC90) (Microsporum canis): MIC = 40 μg/ml | Inhibitory concentration MIC (MIC90) (Microsporum gypseum): MIC = 20-40 μg/ml | Inhibitory concentration MIC (MIC90) (Mycobacterium avium): MIC = 50 μg/ml | Inhibitory concentration MIC (MIC90) (Nannizia gypsea): MIC = 30 μg/ml | Inhibitory concentration MIC (MIC90) [6]: MIC = 0.63-1.25 μg/ml | Inhibitory concentration MIC (MIC90) (Rhizopus spp): MIC = 25 μg/mL | Inhibitory concentration MIC (MIC90) [7]: MIC = 0.63-50 μg/ml | Inhibitory concentration MIC (MIC90) [8]: MIC = 25 μg/mL | Inhibitory concentration MIC (MIC90) (Sporothrix schenckii): MIC = 2-10 μg/ml | Inhibitory concentration MIC (MIC90) [9]: MIC = 1.6 μg/ml | Inhibitory concentration MIC (MIC90) (Streptococcus caseii): MIC = 3.1 μg/ml | Inhibitory concentration MIC (MIC90) (Streptococcus lactis): MIC = 3.1 μg/ml | Inhibitory concentration MIC (MIC90) (Streptococcus mitis): MIC = 3.1 μg/ml | Inhibitory concentration MIC (MIC90) (Streptococcus mutans): MIC = 3.1 μg/ml | Inhibitory concentration MIC (MIC90) [10]: MIC = 6.3 μg/ml | Inhibitory concentration MIC (MIC90) [11]: MIC = 6.3 μg/ml | Inhibitory concentration MIC (MIC90) (Trichophyton spp): MIC = 6.3-45 μg/ml | Inhibitory concentration MIC (MIC90) (Trichophyton tonsurans): MIC = 5-40 μg/ml | Inhibitory concentration MIC (MIC90) (Trichosporon cutaneum): MIC = 1.25-18 μg/ml | Inhibitory concentration MIC (MIC90) [12]: MIC = 40 μg/ml
